Results on one compound are retold here after patent EP0978281B1, “EYEDROPS CONTAINING A LORATIDINE METABOLITE” (Schering-Plough Kabushiki Kaisha, priority 1997, dated 1998).

This assay deals with IgE-immunized Rat Peritoneal Mast Cells. In words: cells. The settings on record: Mast cell, read-out: % inhibition of Histamine Release.

SMILES strings stand for the structures.

Broadly, the inhibition is the percentage by which the read-out fell short of the control. On to `CCOC(=O)N1CCC(=C2c3ccc(Cl)cc3CCc3cccnc32)CC1` [Loratadine, ethyl 4-(8-chloro-5,6-dihydro-11H-benzo[5,6]cyclohepta[1,2-b]pyridin-11-ylidene)-1-piperidinecarboxylate], for which the inhibition at 0.3 µM was 19.8 ± 5.77%, the inhibition at 1 µM came to 27.1 ± 4.72%, the inhibition at 3 µM was 45.8 ± 9.26% and the inhibition at 10 µM is 73.3 ± 16.8%.
